*1 amine or outer side, *2 acyl side, *3 side chain or, on linkers, in order; H or OH if unused. Where a SMILES comes first, the peptide text is derived from it. Bridges are numbered along the chain shown (N, C = ends). [ ]: non-standard residue; d: D form. NMeY = CN[C@@H](Cc1ccc(O)cc1)C(=O)O; X1 = O=C(CC1(S[*:2])CCCCC1)[*:1]
Columns and labels:
[1] = Ratio of antidiuretic V2 effective dose to that of vasopressin V1 effective dose; assay type: functional, Urine
[2] = target: Vasopressin V1 receptor (Rattus norvegicus) (UniProt P48974+P30560); test: Dose that reduces blood pressure response in rats; assay type: functional
Sequence of Vasopressin V1 receptor (Rattus norvegicus) (P30560 whole entry, looked up): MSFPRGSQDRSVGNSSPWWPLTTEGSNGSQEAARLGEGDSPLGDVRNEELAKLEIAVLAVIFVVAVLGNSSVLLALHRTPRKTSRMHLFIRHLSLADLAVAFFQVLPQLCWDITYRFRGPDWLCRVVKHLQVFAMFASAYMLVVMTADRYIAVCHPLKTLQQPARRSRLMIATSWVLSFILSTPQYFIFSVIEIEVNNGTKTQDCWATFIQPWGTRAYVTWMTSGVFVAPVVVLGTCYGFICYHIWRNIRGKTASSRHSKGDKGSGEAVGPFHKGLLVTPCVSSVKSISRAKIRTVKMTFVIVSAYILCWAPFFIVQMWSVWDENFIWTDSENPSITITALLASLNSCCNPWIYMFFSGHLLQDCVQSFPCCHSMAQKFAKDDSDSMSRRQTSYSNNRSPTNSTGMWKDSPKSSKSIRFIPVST
Sequence of Vasopressin V1 receptor (Rattus norvegicus) (P48974 whole entry, looked up): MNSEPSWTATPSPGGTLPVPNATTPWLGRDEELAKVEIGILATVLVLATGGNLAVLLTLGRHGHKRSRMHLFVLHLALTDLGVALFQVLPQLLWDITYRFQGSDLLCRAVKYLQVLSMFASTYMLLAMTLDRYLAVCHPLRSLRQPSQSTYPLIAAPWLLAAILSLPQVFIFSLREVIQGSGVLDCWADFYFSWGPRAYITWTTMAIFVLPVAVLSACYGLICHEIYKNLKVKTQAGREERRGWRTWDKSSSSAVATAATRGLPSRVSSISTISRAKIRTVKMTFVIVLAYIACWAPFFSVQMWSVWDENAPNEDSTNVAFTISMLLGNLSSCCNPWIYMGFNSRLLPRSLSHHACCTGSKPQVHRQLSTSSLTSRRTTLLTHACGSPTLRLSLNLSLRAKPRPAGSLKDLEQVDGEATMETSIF

[3] = target: Vasopressin V2 receptor (Rattus norvegicus) (UniProt Q00788); test: Dose that reduces urine flow in water-loaded rats; assay type: functional
Sequence of Vasopressin V2 receptor (Rattus norvegicus) (Q00788 whole entry): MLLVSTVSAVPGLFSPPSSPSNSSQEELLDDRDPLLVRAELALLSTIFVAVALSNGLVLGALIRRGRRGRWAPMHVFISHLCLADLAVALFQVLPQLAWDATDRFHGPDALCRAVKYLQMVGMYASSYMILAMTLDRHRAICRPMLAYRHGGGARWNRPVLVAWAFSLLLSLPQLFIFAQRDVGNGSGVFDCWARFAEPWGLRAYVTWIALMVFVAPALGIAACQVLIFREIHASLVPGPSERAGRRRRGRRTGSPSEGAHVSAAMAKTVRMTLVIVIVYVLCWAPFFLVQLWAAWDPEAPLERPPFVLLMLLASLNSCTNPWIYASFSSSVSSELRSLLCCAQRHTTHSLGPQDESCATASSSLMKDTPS

[4] = target: Vasopressin V2 receptor (Rattus norvegicus) (UniProt Q00788); test: Antidiuretic activity in water-loaded rats

SMILES | Effective dose [3] | Antidiuretic activity [4] | Ratio [1] | Effective dose [2]
CN1C(=O)CC2(CCCCC2)SSC[C@H](C(=O)N2CCC[C@H]2C(=O)N[C@@H](CCCN=C(N)N)C(=O)N[C@@H](CCCN=C(N)N)C(N)=O)NC(=O)[C@@H](CC(N)=O)NC(=O)[C@H](CCC(N)=O)NC(=O)[C@@H](Cc2ccccc2)NC(=O)[C@@H]1Cc1ccc(O)cc1 | 18 nM/kg |  | ~150 | 0.12 nM/kg
CN1C(=O)CC2(CCCCC2)SSC[C@H](C(=O)N2CCC[C@H]2C(=O)N[C@@H](CCCN=C(N)N)C(=O)NCC(=O)NCCN)NC(=O)[C@@H](CC(N)=O)NC(=O)[C@H](CCC(N)=O)NC(=O)[C@@H](Cc2ccccc2)NC(=O)[C@@H]1Cc1ccc(O)cc1 | 16 nM/kg |  |  | 0.27 nM/kg
C[C@H](NC(=O)[C@H](CCCN=C(N)N)NC(=O)[C@@H]1CCCN1C(=O)[C@H]1CSSC2(CCCCC2)CC(=O)N(C)[C@@H](Cc2ccc(O)cc2)C(=O)N[C@H](Cc2ccccc2)C(=O)N[C@@H](CCC(N)=O)C(=O)N[C@H](CC(N)=O)C(=O)N1)C(N)=O | 77 nM/kg |  |  | 0.13 nM/kg
CN1C(=O)CC2(CCCCC2)SSC[C@H](C(=O)N2CCC[C@H]2C(=O)N[C@@H](CCCN=C(N)N)C(=O)NCC(N)=O)NC(=O)[C@H](CC(N)=O)NC(=O)[C@H](CCC(N)=O)NC(=O)[C@H](Cc2ccccc2)NC(=O)[C@@H]1Cc1ccc(O)cc1 ([NMeY]FQN[dC]PRG-NH2; linker N-5 via X1) |  | 0.31 units/mg |  | 0.16 nM/kg

Second part, led by results:

Effective dose [3] | Antidiuretic activity [4] | SMILES | Ratio [1] | Effective dose [2]
 | 0.039 units/mg | CC(C)[C@H](NC(=O)[C@H](CCCN=C(N)N)NC(=O)[C@@H]1CCCN1C(=O)[C@H]1CSSC(C)(C)CC(=O)N(C)[C@@H](Cc2ccc(O)cc2)C(=O)N[C@H](Cc2ccccc2)C(=O)N[C@@H](CCC(N)=O)C(=O)N[C@H](CC(N)=O)C(=O)N1)C(N)=O |  | 0.6 nM/kg
 | 0.083 units/mg | CN1C(=O)CC(C)(C)SSC[C@H](C(=O)N2CCC[C@H]2C(=O)N[C@@H](CCCN=C(N)N)C(=O)N[C@@H](CCCN=C(N)N)C(N)=O)NC(=O)[C@@H](CC(N)=O)NC(=O)[C@H](CCC(N)=O)NC(=O)[C@@H](Cc2ccccc2)NC(=O)[C@@H]1Cc1ccc(O)cc1 |  | 
 | 0.029 units/mg | CN1C(=O)CC(C)(C)SSC[C@H](C(=O)N2CCC[C@H]2C(=O)N[C@@H](CCCN=C(N)N)C(=O)N[C@@H](Cc2ccc(O)cc2)C(N)=O)NC(=O)[C@@H](CC(N)=O)NC(=O)[C@H](CCC(N)=O)NC(=O)[C@@H](Cc2ccccc2)NC(=O)[C@@H]1Cc1ccc(O)cc1 |  | 0.38 nM/kg

From ChEMBL document CHEMBL1125295, “Synthesis and some pharmacological properties of potent and selective antagonists of the vasopressor (V1-receptor) response to arginine-vasopressin” (J Med Chem, 1992)
